Assay results published in article PMC3772838, “Preclinical Development of a Novel Class of CXCR4 Antagonist Impairing Solid Tumors Growth and Metastases” (PLoS ONE, 2013).
Bridges are numbered along the chain shown (N, C = ends). Where no end group is shown, it is not given here.

Legend:
[1] = test system: SN12C-EGFP renal cancer cells; experiment: SN12C-pEGFP subcutaneous xenograft tumor growth; format: in vivo, CD1 nude mice; conditions: IP 10 days, peptides 2 mg/kg, AMD3100 1.25 mg/kg; measured a week later by fluorescence stereomicroscope; control 65.97±35.1; average
Procedure: All mice were obtained from Harlan (Bar Harbor, ME, USA) and their care was in accord with institutional guidelines. Twenty-five 6-8-week-old female C57BL/6 mice were inoculated into the tail vein with 5×10^5 B16–CXCR4 cells pre-treated for 30 minutes with peptide S (10 µM), peptide R (10 µM), peptide I (10 µM), or AMD3100 (10 µM). Six hours later intraperitoneal (IP) treatment started with AMD3100 (1.25 mg/kg) or each peptide (2 mg/kg) in sterile PBS once a day for 10 days. A week later the mice were sacrificed. The experiment was repeated three times. The lung metastases assay was also conducted with K7M2 murine osteosarcoma cells. Twenty-five 6-8-week-old female Balb/c mice were injected via tail vein with 2.5×10^5 K7M2 cells pre-treated for 30 minutes with AMD3100 (10 µM), peptide S (10 µM), peptide R (10 µM), peptide I (10 µM) and animals were treated IP daily for 15 days with 2.5 mg/kg for AMD3100 group and 10 mg/kg for each peptide groups. A week later the mice were sacrificed. Xenograft tumor growth was evaluated using pEGFP-SN12C cells in exponential growth phase subcutaneously injected into the right flank of twenty-five 6-8-week-old female CD1 nude mice. 2×10^6 SN12C-pEGFP were injected in the right flank of each mouse and treated with AMD3100 (1.25 mg/kg) and peptides (2 mg/kg) for 10 days ip. A week later mice were euthanized and tumor volume evaluated through Leica MacroFluo fluorescence stereomicroscope (Leica microsystem, Houston, TX). The experiment was repeated three times. The Istituto Nazionale per lo Studio e la Cura dei Tumori, Fondazione Giovanni Pascale Independent Etical Comettee approved the study (CEI/600/12).
6 to 8-week-old female CD1 nude mice were injected subcutaneously with 2×10^6 pEGFP-SN12C cells pre-treated with 10 µM AMD3100 or 10 µM of each peptide. Beginning the following day mice were further treated intraperitoneally for 10 days with 1.25 mg/kg AMD3100 or 2 mg/kg of peptides R, I or S. A week later mice were euthanized and tumor volume evaluated directly from the flank of mice using a Leica MacroFluo fluorescence stereomicroscope (Leica microsystem, Houston, TX) (A). The experiments were repeated three times. B. SN12C-PEGFP cells migration toward CXCL12 in the presence of AMD3100 or Peptide R, S and I.

[2] = test system: SN12C-GFP human renal cancer cells; experiment: CXCL12-induced SN12C-GFP migration; format: cell-based; conditions: Figure 5
Procedure: (§1) Migration was assayed in 24-well Transwell chambers (Corning Inc., Corning, NY) using inserts with an 8-µm pore membrane. Membranes were precoated with collagen (human collagen type I/III) and fibronectin (20 µg/mL each). […] After 16 h incubation, cells on the upper surface of the filter were removed using a cotton wool swab; migration of cells in migration media alone was compared with migration in media containing CXCL12. The cells were counted in ten different fields (original magnification ×40). The migration index was defined as the ratio between migrating cells in the experimental group and migrated cells in the control group. For the wound closure assay, tested cells were allowed to reach confluence in six-well plates containing serum-depleted growth medium and scratched with pipette tips to make wounds. The wound closure was observed microscopically 6 hours post-wounding (OKO Time Lapse).
6 to 8-week-old female CD1 nude mice were injected subcutaneously with 2×10^6 pEGFP-SN12C cells pre-treated with 10 µM AMD3100 or 10 µM of each peptide. […] The experiments were repeated three times.

CXCR4 = experiment: Mobilization of hematopoietic precursors and neutrophils; format: in vivo; conditions: DBA/2 mouse; for duration of mobilization effect compared to AMD3100: preliminary; for stem cell and neutrophil mobilization relative to AMD3100: preliminary evidence
Source text: The development of CXCR4 inhibitors is of increasing interest with AMD3100 (Plerixafor) having been approved by the FDA for stem cell mobilization, [39]. We evaluated peptides R, I and S for their ability to mobilize hematopoietic precursors in a DBA/2 mouse model in a CXCR4 dependent manner.

P-ERK1/2 = experiment: CXCL12-induced p-ERK induction (immunoblotting); format: cell-based, human; conditions: PES43 cells serum-starved, CXCL12 100 ng/ml, after 5 minutes
Procedure: Cells were homogenized in lysis buffer (40 mM Hepes pH 7,5, 120 mM NaCl, 5 mM MgCl2, 1 mM EGTA, 0,5 mM EDTA, 1% Triton X-100) containing protease (Complete Tablets- EDTA-free, Roche) and phosphatase inhibitors (20 mM α-glycerol-3-phosphate, 2,5 mM Na-pyrophosphate). The following primary antibodies were used: anti-p-ERK (sc7383, Santa Cruz Biotechnology, Inc., Santa Cruz, CA, USA) and anti-ERK2 (sc 154G, Santa Cruz Biotechnology CA, USA). P-Erk induction was plotted as ratio P-Erk in the presence of CXCL12 (100 ng/ml)/P-Erk in serum free.
(§2) Experiments were conducted using PES43 cells. (A) Migration was assayed in 24-well Transwell chambers using inserts with 8-µm pore membrane. […] Migrated cells on the lower surface were fixed, stained with H&E and counted microscopically. The results are expressed as the migration index relative to migration in presence of BSA alone. […] Images were acquired with OKO Time Lapse. […] PES43 cells were serum-starved and incubated with CXCL12 (100 ng/ml) alone or in presence of AMD3100/peptides. Each peptide was tested in at least three different experiments. Double tailed T-Test was used for statistical analyses. Differences were considered significant at P<0.05 compared to control.
PES43 cell lines were serum starved for 16 hours. […] (TIF) Click here for additional data file.

[3] = test system: PES43 human melanoma cells; experiment: CXCL12-dependent Transwell migration of PES43 cells; format: cell-based; conditions: 100 ng/mL CXCL12 in lower chamber, 16 h, tested 10 nM, 100 nM, 1 µM, 10 µM
Procedure: as §1, §2

Row | Substance | tumor volume of SN12C-GFP xenograft [1] | CXCL12-induced SN12C-GFP migration [2] | duration of mobilization effect compared to AMD3100 (CXCR4) | stem cell and neutrophil mobilization relative to AMD3100 (CXCR4) | CXCL12-mediated p-ERK induction (P-ERK1/2) | concentration at which CXCL12-dependent migration was inhibited [3]
1 | [Cys-Trp-His-Arg-Cys] (CWHRC; disulfide 1-5) [Peptide I, v-MIP-II mimetic disulfide-cyclic peptide] | 39.19±25.8 mm^3 | inhibited | more durable | as potent stem cell and neutrophil mobilization as does AMD3100 | reduced | ≤ 10 nM
2 | Arg-Ala-[Cys-Arg-His-Trp-Cys] (RACRHWC; disulfide 3-7) [Peptide S, CXCL12-mimetic disulfide-cyclic peptide] | 44.51±26.4 mm^3 | inhibited | more durable | as potent stem cell and neutrophil mobilization as does AMD3100 | reduced | ≤ 10 nM
3 | Arg-Ala-[Cys-Arg-Phe-Phe-Cys] (RACRFFC; disulfide 3-7) [Peptide R, CXCL12-mimetic disulfide-cyclic peptide] | 47.00±16.88 mm^3 | inhibited | more durable | as potent stem cell and neutrophil mobilization as does AMD3100 | reduced | ≤ 10 nM
